Experiments:
[1] = system: 1209; assay: Hydrolysis of reactant ligands by receptor 12C9 (column head prints 1209); format: biochemical, mouse; design: key to hydrolysis by 1209, symbol: --: No hydrolysis observed; conditions: pH 8.0; 19: 2/5 uM, 21: 5/10 uM receptor/ligand
Description: (§1) ^1 Preliminary initial hydrolyses shown as the percentage of admixed
(§2) reactant ligand consumed for catalyzed and spontaneous hydrolyses. "--" =
(§3) No hydrolysis observed. "NT" = Not tried. All reactions were carried out
(§4) at pH 8.0 in a 50 mM phosphate buffer unless otherwise noted. Hydrolytic
(§5) percentages were determined by HPLC using a Hitachi model 655A12 liquid
(§6) chromatograph with a C18 Vydac 201TP54 column, except as noted below.
(§7) Mixtures of acetonitrile a nd water containing 0.1 percent trichloroaceti
(§8) acid [28:72-50:50 (v/v)] were used as elutant. Hydrolyses of Compounds 5
(§9) and 20 were assayed using fluorescence data.
(§10) ^2 Concentrations of receptor molecules (Rec.) and reactant ligands
(§11) (Lig.) in micromolar units, presuming a molecular weight of 150,000
(§12) daltons for each receptor molecule.
(§13) ^3 Reactant ligand (Lig.) used as substrate.
(§14) ^4 Time in hours that the reaction was permitted to take place.
(§15) ^5 Spontaneous hydrolytic percentages for the time period indicated.
(§16) ^6 Reaction carried out at pH 7.2 in a 50 mM phosphate buffer.

[2] = system: 44A2; assay: Hydrolysis of reactant ligands by receptor 44A2; format: biochemical, mouse; design: key to hydrolysis by 44A2, symbol: --: No hydrolysis observed; conditions: pH 8.0; 19: 2/5 uM, 21: 5/10 uM receptor/ligand
Description: as §1, §2, §3, §4, §5, §6, §7, §8, §9, §10, §11, §12, §13, §14, §15, §16

[3] = system: 22F5; assay: Hydrolysis of reactant ligands by receptor 22F5; format: biochemical, mouse; design: key to hydrolysis by 22F5, symbol: --: No hydrolysis observed; conditions: pH 8.0; 19: 2/5 uM, 21: 5/10 uM receptor/ligand
Description: as §1, §2, §3, §4, §5, §6, §7, §8, §9, §10, §11, §12, §13, §14, §15, §16

[4] = system: 17G8; assay: Hydrolysis of reactant ligands by receptor 17G8; format: biochemical, mouse; design: key to hydrolysis by 17G8, symbol: --: No hydrolysis observed; conditions: pH 8.0; 19: 2/5 uM, 21: 5/10 uM receptor/ligand
Description: as §1, §2, §3, §4, §5, §6, §7, §8, §9, §10, §11, §12, §13, §14, §15, §16

[5] = system: 13E10; assay: Hydrolysis of reactant ligands by receptor 13E10; format: biochemical, mouse; design: key to hydrolysis by 13E10, symbol: --: No hydrolysis observed; conditions: pH 8.0; 19: 2/5 uM, 21: 5/10 uM receptor/ligand
Description: as §1, §2, §3, §4, §5, §6, §7, §8, §9, §10, §11, §12, §13, §14, §15, §16

[6] = system: 21G2; assay: Hydrolysis of reactant ligands by receptor 21G2; format: biochemical, mouse; design: key to hydrolysis by 21G2, symbol: --: No hydrolysis observed; conditions: pH 8.0; 19: 2/5 uM, 21: 5/10 uM receptor/ligand
Description: as §1, §2, §3, §4, §5, §6, §7, §8, §9, §10, §11, §12, §13, §14, §15, §16

[7] = system: eight monoclonal receptors 21G2, 7E5, 37G2, 13E10, 12C9, 44A2, 17G8 and 22F5; assay: Catalyzed hydrolysis of reactant ligands by the eight QPN1 monoclonal receptors, summary; format: biochemical, mouse; conditions: pH 8.0
Description: Mice were hyperimmunized with the Compound 13-KLH conjugate over a three to four week time period. Sera were assayed in an ELISA using a Compound 13-BSA conjugate bound to microtiter plate wells as the solid-phase antigen. Cloned hybridomas were also screened using that ELISA assay.
Each of those catalyses could be inhibited by an appropriate analog-ligand. Thus, a relatively high percentage of induced monoclonal receptors was capable of catalyzing an esterolytic reaction. The reason for this relatively high percentage of useful receptors being induced is unknown, but could be due to the presence of phosphonamidate group nitrogen atom, as compared to a phosphonate oxygen atom, or to the quinoline nucleus of the analog-ligand. Those eight catalytic monoclonal receptors and the hybridomas that secrete them are identified by the laboratory designations "QPN1 7E5", "QPN1 12C9", "QPN1 13E10", "QPN1 17G8", "QPN1 21G2", "QPN1 22F5", "QPN1 37G2" and QPN1 44A2. The prefix "QPNI" is sometimes omitted herein when discussing these hybridomas and receptors.
Amide cleavage for Compounds 14 and 15 was assayed by analyzing for the production of free aminoquinaldine or aminonaphthalene by measuring the increase in the azo dye that results from derivatizing the free aminoquinaldine or aminonapthalene with a diazotization reagent.
Catalysis reactions were conducted by preparing a reaction admixture of 100 microliters (ul) total volume containing 5 micromolar (uM) monoclonal antibody, 50-75 uM amide reactant ligand substrate and a buffer described hereinafter. The buffer included in the above admixture varied depending upon the pH utilized as follows: pH 5, 10 […] sodium acetate, 10 mM sodium chloride; pH 7.2, 10 mM sodium phosphate, 0.15 molar (M) sodium chloride; pH 8.0; 50 mM sodium phosphate. The amide-containing substrates screened in this assay were added to the above admixture in 1 ul of a 100-fold concentrated stock solution of dimethyl formamide (DMF). Monoclonal antibody was added to the above admixture from a concentrated stock solution. The resulting admixture was placed into the well of a 96 well flat bottom microtiter plate (Costar, Cambridge, Mass.) and maintained in a moist vapor environment chamber at 23 degrees C. The production of aminoquinaldine or aminonaphthalene was then assayed as described below after 2,3,5, or 6 days.
The aminoquinaldine or aminonapthalene product produced by the catalyzed reaction was measured by first admixing 20 ul of 5M HCl, 80 ul acetone and 10 ul 0.5% (w/v) sodium nitrite to the reaction admixture to form a second admixture and maintaining that second admixture for 3 minutes at room temperature. Thereafter, 10 ul 2.5% (w/v) ammonium sulfamate was added to form a third admixture that was maintained for 2 minutes at room temperature. A still further 10 ul of 0.5% (w/v) N-(1-napthyl)ethylenediamine dihydrochloride was added to form a fourth admixture that was then maintained for 15 minutes at room temperature. Thereafter the resulting azo dye present in the fourth admixture was measured by absorbance spectroscopy at 540 nanometers (nm) for aminoquinaldine using a Model EL 309 Automated Microplate Reader (Bio-Tek Instruments, Winooski, Vt.).

[8] = system: 37G2; assay: Hydrolysis of reactant ligands by receptor 37G2; format: biochemical, mouse; design: key to hydrolysis by 37G2, symbol: --: No hydrolysis observed; conditions: pH 8.0; 19: 2/5 uM, 21: 5/10 uM receptor/ligand
Description: as §1, §2, §3, §4, §5, §6, §7, §8, §9, §10, §11, §12, §13, §14, §15, §16

[9] = Spontaneous (uncatalyzed, background) hydrolysis; format: physicochemical; design: key to Spon. (spontaneous hydrolysis), symbol: --: No hydrolysis observed; conditions: pH 8.0
Description: The practical range of pH for the assay is limited by the rapid spontaneous rate of hydrolysis of an ester Compound 5 above pH 8.0. Initially, the ester was used at a concentration that was about four-fold greater than that of the protein, and the mixture was incubated at pH 7.2 for 10 minutes. Any change in fluorescence above background was noted.
The lack of spectroscopic distinction between such esters and their hydrolysis products recommended a chromatographic analysis of the process. Referring to FIG. 3, a mixture of Compound 7 (5 uM) and the monoclonal antibody from hybridoma P3 6D4 (0.1 uM) in phosphate buffer (50 mM, pH 8.0) was analyzed over time by high performance liquid chromatography (HPLC). The accelerated hydrolysis of the ester was apparent from the decrease of its peak and the concurrent increase in two new peaks that correspond with the expected products. Under these conditions, the ester is completely consumed in 60-80 minutes during which time the background rate accounts for about 12 to 16 percent hydrolysis. The chromatographic profile is the same as that produced by treatment with hog liver esterase.
^c The rate constants were determined spectrophotometrically (at 245
nm) by measuring initial rates at five concentrations of ester.
as §1, §2, §3, §4, §5, §6, §7, §8, §9, §15
Reaction kinetics were studied using three reactant ligands as substrates for monoclonal receptors 37G2 and 22F5. Data from initial rates were consistent with Michaelis-Menten reaction mechanism for a usual enzyme-substrate system. Initial rates were followed using at 271 nm using a U.V.-visible spectorphotometer for Compound 17, and a fluorescence spectrometer for Compounds 5 and 20, using an excitation wavelength of 355 nm and an emission wavelength of 455 nm for both compounds.

[10] = system: 7E5; assay: Hydrolysis of reactant ligands by receptor 7E5; format: biochemical, mouse; design: key to hydrolysis by 7E5, symbol: --: No hydrolysis observed; conditions: pH 8.0; 19: 2/5 uM, 21: 5/10 uM receptor/ligand
Description: as §1, §2, §3, §4, §5, §6, §7, §8, §9, §10, §11, §12, §13, §14, §15, §16

| hydrolysis by 1209, symbol [1] | hydrolysis by 44A2, symbol [2] | hydrolysis by 22F5, symbol [3] | hydrolysis by 17G8, symbol [4] | hydrolysis by 13E10, symbol [5] | hydrolysis by 21G2, symbol [6] | receptors (of eight) that catalyzed hydrolysis of the compound [7] | hydrolysis by 37G2, symbol [8] | hydrolysis by 7E5, symbol [10] | Compound | Spon. (spontaneous hydrolysis), symbol [9] |
| --- | --- | --- | --- | --- | --- | --- | --- | --- | --- | --- |
| -- | -- | -- | -- | -- | -- | lack of hydrolysis | -- | -- | CC(=O)Nc1ccc(CC(=O)Oc2ccccc2NC(C)=O)cc1 [Compound 21] | -- |
| -- | -- | -- | -- | -- | -- | none of the receptors | -- | -- | COC(=O)Cc1ccc(NC(C)=O)cc1 [Compound 19] | -- |

| Compound | hydrolysis by 1209, symbol [1] | hydrolysis by 44A2, symbol [2] | hydrolysis by 22F5, symbol [3] | hydrolysis by 17G8, symbol [4] | hydrolysis by 13E10, symbol [5] | hydrolysis by 21G2, symbol [6] | receptors (of eight) that catalyzed hydrolysis of the compound [7] | hydrolysis by 37G2, symbol [8] | hydrolysis by 7E5, symbol [10] | Spon. (spontaneous hydrolysis), symbol [9] |
| --- | --- | --- | --- | --- | --- | --- | --- | --- | --- | --- |
| CC(=O)Nc1ccc(CC(=O)Nc2cccc3ccc(C)nc23)cc1 [Compound 14] | -- | -- | -- | -- | -- | -- | none of the receptors catalyzed hydrolysis | -- | -- | -- |
